Columns and labels:
Ctenocephalides felis [1] = assay: In vitro contact test with fleas; settings: read-out: insecticidal activity; for pest or weed control at 0.2 µg/cm2, 0.2 µg/cm2: dose 0.2 μg/cm^2, dead or moribund fleas after 48 h; for pest or weed control at 1 µg/cm2, 1 µg/cm2: dose 1 μg/cm^2, dead or moribund fleas after 48 h; for pest or weed control at 0.04 µg/cm2, 0.04 µg/cm2: dose 0.04 μg/cm^2, dead or moribund fleas after 48 h
In short: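 Adult male and female cat fleas (5-10 per tube) placed in glass tubes coated with compound from acetone solution (900 ppm gives 5 μg/cm^2), kept at room temperature and ambient humidity. After 48 h, motionless or uncoordinated fleas scored dead or moribund; activity expressed as % dead or moribund.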

Rhipicephalus sanguineus = assay: In vitro contact test with adult hard ticks (Rhipicephalus sanguineus); settings: read-out: acaricidal activity; for pest or weed control at 0.2 µg/cm2, 0.2 µg/cm2: dose 0.2 μg/cm^2, 48 h; for pest or weed control at 1 µg/cm2, 1 µg/cm2: dose 1 μg/cm^2, 48 h
In short: (§1)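 Adult R. sanguineus, I. ricinus, D. variabilis or A. americanum nymphs exposed in glass vials coated with compound from acetone (900 ppm gives 5 μg/cm^2). Held 48 h at room temperature (R. sanguineus) or 21° C., 85% rel. hum.; then heated at 45-50° C. ≤5 min, motionless or uncoordinated ticks scored dead/moribund.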

Amblyomma americanum = assay: In vitro contact test with hard ticks (Amblyomma americanum nymphs); settings: read-out: acaricidal activity; for pest or weed control at 1 µg/cm2, 1 µg/cm2: dose 1 μg/cm^2, 48 h; for pest or weed control at 0.2 µg/cm2, 0.2 µg/cm2: dose 0.2 μg/cm^2, 48 h
In short: as §1

Plutella xylostella = assay: Insecticidal testing against diamondback moth; format: in vivo; settings: foliar, 144 h, concentration 100 ppm, cabbage leaf dip, third-stage larvae, after 6 days, read-out: pesticidal rate
Excerpt: Insecticidal Testing Against Diamondback Moth (Plutella xylostella)

Laodelphax striatellus = assay: Insecticidal testing against small brown planthopper; format: in vivo; settings: 144 h, concentration 100 ppm, sprayed rice seedlings, after 6 days, read-out: pesticidal rate
Experimental: Insecticidal Testing Against Small Brown Planthopper (Laodelphax striatellus)
An additional test was carried out with 10 small brown planthoppers by preparing an acetone solution of the testing compound diluted to a predetermined concentration, spraying the solution onto rice seedlings and air drying the rice seedlings. The medicament was all used as received. The rice seedlings were placed in a constant-temperature room at 25° C., and the survival rate was investigated after 6 days. The test was carried out by means of one group of 10 pests.

[2] = tested on: Rhipicephalus (Boophilus) microplus; assay: In vitro injection test with Rhipicephalus (Boophilus) microplus (BOOPMI Inj); settings: 168 h, laid fertile eggs after 7 days, read-out: acaricidal activity; for pest or weed control at 32 ng: dose 0.032 μg/animal injected; for pest or weed control at 0.00016 mg: dose 0.16 μg/animal injected; for pest or weed control at 0.0008 mg: dose 0.8 μg/animal injected
In short: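 Test substance in DMSO; 1 μl injected into abdomen of each of 5 engorged adult female ticks, then held at 28° C., 85% rel. hum. Activity scored after 7 days from laying of fertile eggs: 100% = no eggs or all infertile, 0% = all eggs fertile.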

Ctenocephalides felis [3] = assay: Ctenocephalides felis in-vitro feeding test with fleas (CTECFE oral); settings: 48 hours, read-out: insecticidal feeding activity; for pest or weed control at 0.16 ppm: dose 0.16 ppm in citrated cattle blood; for pest or weed control at 0.8 ppm: dose 0.8 ppm in citrated cattle blood; for pest or weed control at 4 ppm: dose 4 ppm in citrated cattle blood; for pest or weed control at 0.032 ppm: dose 0.032 ppm in citrated cattle blood
In short: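 About 20 unfed adult cat fleas fed through parafilm on citrated cattle blood containing test substance (DMSO solution diluted in blood), held at about 37° C. Kill rate scored after 48 hours, 100% meaning all fleas dead.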

Spodoptera litura = assay: Insecticidal testing against common cutworm; format: in vivo; settings: foliar, 144 h, concentration 100 ppm, cabbage leaf dip, second-stage larvae, after 6 days, read-out: pesticidal rate
Excerpt: Insecticidal Testing Against Common Cutworm (Spodoptera litura)

Dermacentor variabilis = assay: In vitro contact test with adult hard ticks (Dermacentor variabilis); settings: read-out: acaricidal activity; for pest or weed control at 0.2 µg/cm2, 0.2 µg/cm2: dose 0.2 μg/cm^2, 48 h; for pest or weed control at 1 µg/cm2, 1 µg/cm2: dose 1 μg/cm^2, 48 h
In short: as §1

Structure (SMILES) | pest or weed control at 0.2 µg/cm2, 0.2 µg/cm2 (Ctenocephalides felis [1]) [%] | pest or weed control at 1 µg/cm2, 1 µg/cm2 (Ctenocephalides felis [1]) [%] | pest or weed control at 0.2 µg/cm2, 0.2 µg/cm2 (Rhipicephalus sanguineus) [%] | pest or weed control at 1 µg/cm2, 1 µg/cm2 (Rhipicephalus sanguineus) [%] | pest or weed control at 1 µg/cm2, 1 µg/cm2 (Amblyomma americanum) [%] | pest or weed control at 100 ppm (Plutella xylostella) [%] | pest or weed control at 100 ppm (Laodelphax striatellus) [%] | pest or weed control at 32 ng [2] [%] | pest or weed control at 0.00016 mg [2] [%] | pest or weed control at 0.0008 mg [2] [%] | pest or weed control at 0.16 ppm (Ctenocephalides felis [3]) [%] | pest or weed control at 0.8 ppm (Ctenocephalides felis [3]) [%] | pest or weed control at 4 ppm (Ctenocephalides felis [3]) [%] | pest or weed control at 100 ppm (Spodoptera litura) [%] | pest or weed control at 0.04 µg/cm2, 0.04 µg/cm2 (Ctenocephalides felis [1]) [%] | pest or weed control at 0.2 µg/cm2, 0.2 µg/cm2 (Dermacentor variabilis) [%] | pest or weed control at 1 µg/cm2, 1 µg/cm2 (Dermacentor variabilis) [%] | pest or weed control at 0.032 ppm (Ctenocephalides felis [3]) [%] | pest or weed control at 0.2 µg/cm2, 0.2 µg/cm2 (Amblyomma americanum) [%] | pest or weed control at 0.0064 ppm (Ctenocephalides felis [3]; dose 0.0064 ppm in citrated cattle blood) [%]
CN(C(=O)c1ccc(C(F)(F)F)cc1)c1cccc(C(=O)Nc2c(I)cc(C(F)(C(F)(F)F)C(F)(F)F)cc2C(F)(F)F)c1F [Compound 59] | 95 | 95 | 90 | 90 | 90 | ≥ 70 | ≥ 70 | 100 | 100 | 100 | 95 | 95 | 95 | ≥ 70 | – | – | – | – | – | –
CN(C(=O)c1ccc([N+](=O)[O-])cc1)c1cccc(C(=O)Nc2c(I)cc(C(F)(C(F)(F)F)C(F)(F)F)cc2C(F)(F)F)c1F [Compound 54] | 95 | 95 | 90 | 90 | – | ≥ 70 | ≥ 70 | 100 | 100 | 100 | 95 | 95 | 95 | ≥ 70 | 95 | 90 | 90 | 95 | – | –
CN(C(=O)c1ccc(Cl)c(Cl)c1)c1cccc(C(=O)Nc2c(I)cc(C(F)(C(F)(F)F)C(F)(F)F)cc2C(F)(F)F)c1F [Compound 44] | 95 | 95 | 90 | 90 | – | ≥ 70 | ≥ 70 | – | 100 | 100 | 95 | 95 | 95 | ≥ 70 | – | 90 | 90 | – | – | –
CN(C(=O)c1ccc(F)cc1)c1cccc(C(=O)Nc2c(I)cc(C(F)(C(F)(F)F)C(F)(F)F)cc2[S+]([O-])C(F)(F)F)c1F (stereo not drawn) [Compound 69] | 95 | 95 | 90 | 90 | 90 | ≥ 70 | ≥ 70 | – | 100 | 100 | 95 | 95 | 95 | ≥ 70 | – | – | – | 95 | 90 | –
CN(C(=O)c1ccc(Cl)c(Cl)c1)c1cccc(C(=O)Nc2c(I)cc(C(F)(C(F)(F)F)C(F)(F)C(F)(F)F)cc2C(F)(F)F)c1F (stereo not drawn) [Compound 75] | 95 | 95 | 90 | 90 | 90 | ≥ 70 | ≥ 70 | – | 100 | 100 | – | 95 | 95 | ≥ 70 | – | – | – | – | – | –
Cc1ccc(C(=O)N(C)c2cccc(C(=O)Nc3c(I)cc(C(F)(C(F)(F)F)C(F)(F)F)cc3C(F)(F)F)c2F)cc1 [Compound 58] | 95 | 95 | – | 90 | 90 | ≥ 70 | ≥ 70 | 100 | 100 | 100 | – | 95 | 95 | ≥ 70 | 95 | – | – | – | 90 | –
CN(C(=O)c1ccc(C(F)(F)F)nc1)c1cccc(C(=O)Nc2c(Br)cc(C(F)(C(F)(F)F)C(F)(F)F)cc2OC(F)(F)F)c1F [Compound 98] | 95 | 95 | – | – | – | ≥ 70 | ≥ 70 | – | 100 | 100 | – | 95 | 95 | ≥ 70 | – | 90 | 90 | – | – | –
CSc1ccc(C(=O)N(C)c2cccc(C(=O)Nc3c(I)cc(C(F)(C(F)(F)F)C(F)(F)F)cc3C(F)(F)F)c2F)cc1 [Compound 53] | 95 | 95 | – | – | – | ≥ 70 | ≥ 70 | – | 100 | 100 | 95 | 95 | 95 | ≥ 70 | 95 | 90 | 90 | 95 | – | 95
CN(C(=O)c1ccc(C(F)(F)F)nc1)c1cccc(C(=O)Nc2c(I)cc(C(F)(C(F)(F)F)C(F)(F)F)cc2OC(F)F)c1F [Compound 107] | 95 | 95 | 90 | – | – | ≥ 70 | ≥ 70 | 100 | 100 | 100 | 95 | 95 | 95 | ≥ 70 | 95 | 90 | 90 | 95 | – | –
CN(C(=O)c1ccc(C#N)cc1)c1cccc(C(=O)Nc2c(Br)cc(C(F)(C(F)(F)F)C(F)(F)F)cc2OC(F)(F)F)c1F [Compound 88] | 95 | 95 | 90 | 90 | – | ≥ 70 | ≥ 70 | 100 | 100 | 100 | 95 | 95 | 95 | ≥ 70 | – | 90 | 90 | 95 | – | –
